Where two headings read alike, the source gives them in different places.
Columns and labels:
[1] = system: Brown plant hoppers and Green plant hoppers; assay: Treated paddy leaf bioassay, larval mortality, Colby synergism (Examples 13-14); type: in vivo
Experimental: In this evaluation, Brown plant hoppers and Green plant hoppers are obtained from laboratory colonies. Paddy leaves are immersed in 1:1 v/v, acetone/water solutions of the test compound, or solution of a combination of the test compounds for a period of about 4 seconds. Following immersion, leaves are allowed to air-dry for 2-3 hours. Plastic bioassay trays containing multiple open-faced wells (4.0×4.0×2.5 cm) are used. Cut portions of a treated leaf, a moistened cotton dental wick and a single third-instar larva are placed into each well. These wells are covered with an adhesive vented clear plastic sheet which is held under constant fluorescent light at about 30° C. for a predetermined period of time. Larval mortality/morbidity is evaluated at 5 days after treatment. All treatments are replicated 3-4 fold in a randomized complete block design with 15-30 larvae per treatment. Using conventional log-probit analysis, the LC50 of each treatment is determined.
Synergism can be calculated by using the Colby's method i.e. the expected (or predicted) response of the combination is calculated by taking the product of the observed response for each individual component of the combination when applied alone divided by 100 and subtracting this value from the sum of observed response for each component when applied alone. Synergism of the combination is then determined by comparing the observed response of the combination to the expected (or predicted) response as calculated from the observed response of each individual component alone. If the observed response of the combination is greater than the expected (or predicted) response, then the combination is said to be synergistic and falls within the definition of synergistic effect. (Colby, S. R., Weeds, 1967(15), p. 20-22)

rats [2] = settings: cited from earlier work
[3] = cited from earlier work; for pH of optimum stability: more stable in acid than in alkaline media
[4] = cited from earlier work
rats [5] = settings: cited from earlier work; remark: listed apart in the source
flies = settings: cited from earlier work
[6] = cited from earlier work; remark: listed apart in the source
domestic fowl = settings: cited from earlier work
[7] = in vivo; cited from earlier work
rabbits = settings: cited from earlier work
rats [8] = settings: cited from earlier work; remark: listed apart in the source
[9] = system: cockroaches and other crawling insets; settings: 100 mg a.i. (as WP)/m^2; cited from earlier work
Japanese quail = settings: cis/trans ratio of 40:60; cited from earlier work
chicken = settings: cis/trans ratio of 40:60; cited from earlier work
mice = settings: cited from earlier work

## CC1(C)C(C=C(Cl)Cl)C1C(=O)OC(C#N)c1cccc(Oc2ccccc2)c1 (racemic) [Cypermethrin, (RS)-α-cyano-3-phenoxybenzyl (1RS, 3RS; IRS, 3SR)-3-(2,2-dichlorovinyl)-2,2-dimethyl cyclopropane carboxylate]
[1]; Table 2, Cypermethrin 80 ppm alone
  Observed Mortality %: 52.5%
[1]; Table 2, Cypermethrin 85 ppm alone
  Observed Mortality %: 60%
[1]; Table 2, Cypermethrin 90 ppm alone
  Observed Mortality %: 70%
[1]; Table 3, Cypermethrin 80 ppm alone
  Observed Mortality %: 60.0%
[1]; Table 3, Cypermethrin 85 ppm alone
  Observed Mortality %: 65%
[1]; Table 3, Cypermethrin 90 ppm alone
  Observed Mortality %: 72.0%

## CC(C)[C@@H](C(=O)O[C@@H](C#N)c1cccc(Oc2ccccc2)c1)c1ccc(Cl)cc1 (racemic) [Fenvalerate, (RS)-α-cyano-3-phenoxybenzyl (RS)-2-(4-chlorophenyl)-3-methylbutyrate]
Rats [2]; rats
  Acute percutaneous LD50: > 5000 mg/kg
[3]
  pH of optimum stability: 4
[4]; 20° C.
  solubility in water: < 1 µg/mL
Rats [5]; rats
  acute oral LD50: 451 mg/kg
flies; 110 mg/aquare meter wall
  duration of control of flies in cattle sheds: 60 days
[6]; 23° C.
  Solubility in acetone, chloroform, cyclohexanone, ethanol, xylene: > 1 kg/kg
  Solubility in hexane: 155 g/kg
Domestic fowl
  acute oral LD50: > 1600 mg/kg

## O=[N+]([O-])NC1=NCCN1Cc1ccc(Cl)nc1 [Imidacloprid, 1-(6-chloro-3-pyridylmethyl)-N-nitroimidazolidin-2-yldeneamine]
[7]
  skin sensitisation: Not a skin sensitiser
Rats [2]; rats, 24 h
  Acute percutaneous LD50 (24 h): > 5000 mg/kg
[3]; pH 5
  stability to hydrolysis: Stable
rabbits; rabbit, in vivo
  irritation to skin and eyes: Non irritating
[6]; 20° C.
  solubility in n.hexane: < 100 µg/mL
Rats [8]; female rats, aerosol
  inhalation LC50 (4 h): > 5323 mg/m^3 air
[1]; Table 2, Imidacloprid 24 ppm alone, 5 days after treatment
  Observed Mortality %: 55.00%
[1]; Table 2, Imidacloprid 27 ppm alone
  Observed Mortality %: 69.25%
[1]; Table 2, Imidacloprid 30 ppm alone
  Observed Mortality %: 72.10%

## CC1(C)C(C=C(Cl)Cl)C1C(=O)OCc1cccc(Oc2ccccc2)c1 (stereo not drawn) [Permethrin, 3-phenoxybenzyl(1RS,3 RS; 1 RS, 3SR)-3-(2,2-dichlorovinyl)-2,2-dimethylcyclopropanecarboxylate]
[9]
  duration of control of cockroaches and other crawling insets: > 120 days
Japanese quail
  Typical oral LD50: > 13500 mg/kg
[3]; 50° C.
  stability to heat: ≥ 2 years
[3]; laboratory studies
  photochemical stability, in words: Some photochemical degradation
[3]
  pH of optimum stability: 4
Rats [5]; rats, cis/trans ratio of 40:60
  Typical oral LD50: 430 to 4000 mg/kg
flies; 200 mg a.i. (as EC)/square meter wall or 30 mg a.i. (as WP)/m^2 wall
  duration of residual control of biting flies in animal housing: < 60 days
[6]; 25° C.
  Solubility in Xylene: ≥ 1 kg/kg
  Solubility in hexane: > 1 kg/kg
  Solubility in methanol: 258 g/kg
chicken
  Typical oral LD50: > 300 mg/kg
mice; mice, cis/trans ratio of 40:60
  Typical oral LD50: 540 to 2690 mg/kg

## (E)-N′-[(6-chloro-3-pyridyl)methyl]-N-cyano-N-methylacetamidine [Acetamiprid]
Rats [2]; male and female rats
  Acute percutaneous LD50: > 2000 mg/kg
[3]; pH 4,5,7
  stability in buffered solutions: Stable
[3]; pH 9 and 45° C.
  stability in buffered solutions: Degraded slowly
[3]; sunlight
  stability under sunlight: Stable
[4]; 25° C.
  solubility in water: 4200 µg/mL
Rats [5]; female rats
  acute oral LD50: 146 mg/kg
Rats [5]; male rats
  acute oral LD50: 217 mg/kg
rabbits; rabbits
  irritation to skin and eyes: Non irritating
[6]; acetone, methanol, ethanol, dichloromethane, chloroform, acetonitrile and tetrahydrofuron
  solubility in organic solvents, in words: Soluble
mice; female mice
  acute oral LD50: 184 mg/kg
mice; male mice
  acute oral LD50: 198 mg/kg
Rats [8]; male and female rats
  inhalation LC50 (4 h): > 0.29 mg/L
[1]; Table 3, Acetamiprid 24 ppm alone
  Observed Mortality %: 47.30%
[1]; Table 3, Acetamiprid 27 ppm alone
  Observed Mortality %: 69.25%
[1]; Table 3, Acetamiprid 30 ppm alone
  Observed Mortality %: 72.1%
